Experimental data as given in patent publication US12570639B2, “Tetrahydroquinoline derivative and medicinal use thereof” (Toray Industries, Inc., priority 2020, dated 2026).

Assays:
[1] = In vitro radical scavenging action (DPPH method); settings: 30 minutes at room temperature, maximum concentration 100 μmol/L
Description: Radical scavenging action was evaluated using the DPPH method in the compound of Comparative Example 1, which is a tetrahydroquinoxaline derivative, and in the tetrahydroquinoline derivative (I) or a pharmaceutically acceptable salt thereof. The DPPH method was performed using an antioxidant capacity measurement kit (Dojindo Laboratories).
A test compound was dissolved in DMSO, and the resulting solution was then mixed with an assay buffer and a DPPH solution, which are included in the kit, to a total volume of 200 μL to obtain a final concentration of 10% DMSO, and the reaction was allowed to proceed. Wells added with 100 μmol/L ferrostatin-1, a radical scavenger, were grouped as “control,” and wells added with not test compound were grouped as “background.” The test compound was serially diluted 3-fold starting from a maximum concentration of 100 μmol/L, and the diluted test compound (1.2, 3.7, 11.1, 33.3, or 100 μmol/L) was added and allowed to react at room temperature. Thirty minutes after the reaction, the absorbance at 517 nm was measured, and the average absorbance value was calculated (N=2). The radical scavenging action of the test compound (hereinafter referred to as radical scavenging rate, %) was calculated based on the equation 2 below. The EC50 value of the test compound was calculated from the radical scavenging rate. Radical scavenging rate (%)=[1−{(Average absorbance value at 517 nm measured when a test compound is added)−(Average absorbance value at 517 nm measured in the background)}/{(Average absorbance value at 517 nm measured in the control)−(Average absorbance value at 517 nm measured in the background)}]×100 Equation 2
A note “no detection of radical scavenging action (N.D.),” is given to compounds with a EC50 of >100 μmol/L.

[2] = test system: Human fibrosarcoma cells (HT-1080 cells); assay: In vitro inhibitory action against ferroptosis (Erastin-induced cell death, Cell Counting Kit-8); assay type: cell-based; settings: Erastin 3 μmol/L, 24 hours
[3] = evaluation concentration 30 μmol/L
[4] = evaluation concentration 10 μmol/L

SMILES	EC50 [1] [µM]	Ferroptosis inhibition rate (%) [2, 3] [%]	Ferroptosis inhibition rate (%) [2, 4] [%]
Cc1ccc2c(c1)CCC(c1ccc(C(N)=O)cc1)N2 (stereo not shown) [Example 99, 4-(6-methyl-1,2,3,4-tetrahydroquinolin-2-yl)benzamide]	> 100	98.85	
Cc1ccc2c(c1)NC(c1ccc(S(N)(=O)=O)cc1)CC2 (stereo not shown) [Example 105, 4-(7-methyl-1,2,3,4-tetrahydroquinolin-2-yl)benzenesulfonamide]	> 100	99.03	
Cc1ccc2c(c1)NC(c1ccc(C(N)=O)cc1)CC2 (stereo not shown) [Example 106, 4-(7-methyl-1,2,3,4-tetrahydroquinolin-2-yl)benzamide]	> 100	111.7	
NS(=O)(=O)c1ccc(C2CCc3cc(F)ccc3N2)cc1 (stereo not shown) [Example 107, 4-(6-fluoro-1,2,3,4-tetrahydroquinolin-2-yl)benzenesulfonamide]	> 100	100.8	
NS(=O)(=O)c1ccc(C2CCc3cc(F)ccc3N2)cc1 (stereo not shown) [Example 109, 4-(6-fluoro-1,2,3,4-tetrahydro-quinolin-2-yl)benzenesulfonamide]	> 100		83.63
Cc1cccc2c1CCC(c1ccc(S(N)(=O)=O)cc1)N2 (stereo not shown) [Example 112, 4-(5-methyl-1,2,3,4-tetrahydroquinolin-2-yl)benzenesulfonamide]	> 100	105.5	
NS(=O)(=O)c1ccc(C2CCc3cc(Cl)ccc3N2)cc1 (stereo not shown) [Example 115, 4-(6-chloro-1,2,3,4-tetrahydroquinolin-2-yl)benzenesulfonamide]	> 100	105.8	
NS(=O)(=O)c1ccc(C2CCc3cc(Cl)ccc3N2)cc1 (stereo not shown) [Example 116, 4-(6-chloro-1,2,3,4-tetrahydro-quinolin-2-yl)benzenesulfonamide]	> 100		80.69
NS(=O)(=O)c1ccc(C2CCc3ccc(F)cc3N2)cc1 (stereo not shown) [Example 118, 4-(7-fluoro-1,2,3,4-tetrahydroquinolin-2-yl)benzenesulfonamide]	> 100	95.28	
Cc1ccc2c(c1)CCC(c1ccc(S(N)(=O)=O)cc1)N2 (stereo not shown) [Example 120, 4-(6-methyl-1,2,3,4-tetrahydroquinolin-2-yl)benzenesulfonamide]	> 100		87.34
NC(=O)c1ccc(C2CCc3cc(Cl)ccc3N2)cc1 (stereo not shown) [Example 121, 4-(6-chloro-1,2,3,4-tetrahydroquinolin-2-yl)benzamide]	> 100		92.10
NC(=O)c1ccc(C2CCc3cc(Cl)ccc3N2)cc1 (stereo not shown) [Example 122, 4-(6-chloro-1,2,3,4-tetrahydroquinolin-2-yl)benzamide]	> 100		97.59
NC(=O)c1ccc(C2CCc3cc(Cl)ccc3N2)cc1 (stereo not shown) [Example 131, 4-(6-chloro-1,2,3,4-tetrahydroquinolin-2-yl)benzamide]	> 100	102.5	
NC(=O)c1ccc(C2CCc3cc(F)ccc3N2)cc1 (stereo not shown) [Example 132, 4-(6-fluoro-1,2,3,4-tetrahydroquinolin-2-yl)benzamide]	> 100	105.6	
NS(=O)(=O)c1ccc(C2CCc3c(Cl)cccc3N2)cc1 (stereo not shown) [Example 134, 4-(5-chloro-1,2,3,4-tetrahydroquinolin-2-yl)benzenesulfonamide]	> 100	77.77	
NS(=O)(=O)c1ccc(C2CCc3c(F)cccc3N2)cc1 (stereo not shown) [Example 135, 4-(5-fluoro-1,2,3,4-tetrahydroquinolin-2-yl)benzenesulfonamide]	> 100	62.32	
CS(=O)(=O)Nc1ccc(C2CCc3ccccc3N2)cc1 (stereo not shown) [Example 136, N-(4-(1,2,3,4-tetrahydroquinolin-2-yl)phenyl)methanesulfonamide]	> 100	75.50	
